Measured values taken from patent US20080226718A1, “Indole and Azaindole Derivatives For the Treatment of Inflammatory and Autoimmune Diseases” (Brane Discovery S.r.l, priority 2005, published 2008).

Assays:
[1] = tested on: monocytes; experiment: Chemotaxis assay, monocytes (fMLP); format: cell-based; details: Homo sapiens, Monocyte, fMLP 10 nM, 2 h; for inhibition at 10 µM: [cpd] 10 μM; for inhibition at 25 µM: [cpd] 25 μM; for inhibition at 50 µM: [cpd] 50 μM
Description: (§1) PMNs and monocytes migration was assessed using 1 or 3-μm pore size transwells (Bio-Coat Becton-Dickinson), while lymphocytes by using 5-elm pore size transwells.
(§2) Cells were in RPMI1640, containing 10% heat-inactivated Fetal Calf Serum (FCS) and 20 mM HEPES, pH 7.3, at 2×10^6/ml. 100 μl of cell suspension were added to the top well, and 600 μl of medium, containing chemoattractants and test compound, were added to the bottom well. Migration was evaluated after 2 h for PMNs and monocytes and after 4 h for lymphocytes. fMLP 10 nM (PMNs and monocytes) and MIP-3β 100 nM (lymphocytes) were utilized as chemoattractants. After fixation with 1.5% glutaraldehyde, migrated cells were counted by fluorescence-activated celli sorting using polystyrene beads (Polyscience) as an internal standard (Campbell J. J. et al. J. Cell. Biol. 134, 255-266, 1996; Laudanna C. et al. J. Biol. Chem. 273,46, 30306-30315, 1998).
(§3) Results are expressed as percentage of inhibition over control (=100%), and are the mean of three experiments.

[2] = tested on: lymphocytes; experiment: Chemotaxis assay, lymphocytes (MIP-3β); format: cell-based; details: Homo sapiens, Lymphocyte, MIP-3β 100 nM, 4 h; for inhibition at 10 µM: [cpd] 10 μM, read-out: Inhibition of Chemotaxis (%) Lymphocytes (MIP3-β); for inhibition at 25 µM: [cpd] 25 μM; for inhibition at 25 µM / inhibition at 50 µM: read-out: Inhibition of Chemotaxis (%) Lymphocytes (MIP3-β) (converted); for inhibition at 50 µM: [cpd] 50 μM
Description: as §1, §2, §3

[3] = tested on: encephalitogenic lymphocytes; experiment: Spontaneous adhesion of encephalitogenic T cells on purified ICAM-1; format: cell-based, SJL mice; details: Mus musculus, Lymphocyte, 1 h; for inhibition at 5 µM: [cpd] 5 μM, read-out: Inhibition of Spontaneous Adhesion in encephalitogenic lymphocytes (% of control/non-treated cells) ICAM-1; for inhibition at 10 µM: [cpd] 10 μM; for inhibition at 10 µM / inhibition at 50 µM: read-out: Inhibition of Spontaneous Adhesion in encephalitogenic lymphocytes (% of control/non-treated cells) ICAM-1 (converted); for inhibition at 50 µM: [cpd] 50 μM
Description: Spontaneous adhesion of encephalitogenic lymphocytes was measured in adhesion assays on purified ICAM-1 and VCAM-1 as previously described (Constantin G. et al., J. Immunol. 162, 1144-1149, 1999). Autoreactive T cells were obtained from SJL mice immunized with PLP139-151 as described (Piccio L. et al., J. Immunol. 168, 1940-1949, 2002). Lymphocytes were treated with test compound at concentrations between 5-100 μM for 1 h, while control/untreated cells were treated with vehicle (DMSO). Results are expressed as percentage of inhibition over control (=100%) ±S.D and are the mean of three-four experiments.
ICAM-1 and VCAM-1 are adhesion molecules from the family of immunoglobulins and control the migration of lymphocytes through the endothelium during inflammatory responses. Encephalitogenic T cells are activated lymphocytes displaying spontaneous adhesion on ICAM-1 and VCAM-1 and have increased migration capacities in inflammation sites. Spontaneous adhesion of encephalitogenic lymphocytes was measured in adhesion assays on purified ICAM-1 and VCAM-1 as described in the method.

[4] = tested on: monocytes; experiment: Chemokine-induced rapid adhesion of monocytes to fibrinogen (fMLP); format: cell-based; details: Homo sapiens, Monocyte, fMLP 100 nM; for inhibition at 10 µM: [cpd] 10 μM; for inhibition at 25 µM: [cpd] 25 μM; for inhibition at 50 µM: [cpd] 50 μM
Description: (§4) Adhesion was performed on purified integrin ligands and was evaluated as reported in Constantin G. et al., Immunity, 16, 759-769, 2000. Briefly, primary naïve lymphocytes, polymorphonuclear neutrophils (PMNs) or monocytes were isolated form healthy donors. In other experiments, murine autoreactive T cells were obtained from SJL mice immunized with PLP139-151 as described (Piccio L. et al., J. Immunol, 168, 1940-1949, 2002). Cells were resuspended at 4×10^6/ml in PBS, CaCl2, MgCl2 1 mM, 10% FCS, pH 7.2. Adhesion assays were performed on eighteen well glass slides coated overnight at 4° C. with ligands for CR3 (fibrinogen) or LFA-1 (ICAM-1). 20 μl of cell suspension were added to the wells and stimulated at 37° C. with 5 μl of agonists prior to washing, fixation and computer-assisted enumeration of bound cells.
(§5) Integrin activation was measured as induction of rapid adhesion triggered by the classical chemoattractant N-formyl-L-methionyl-L-leucyl-phenylalanine (fMLP) (100 nM) or by the CC chemokine MIP3β (CCL19, 1 μM). PMNs and monocytes were triggered to adhere to fibrinogen (CR3 ligand); naive human lymphocytes or murine encephalitogenic T cells were triggered to adhere to ICAM-1 (LFA-1 ligand). Triggered adhesion was evaluated after 2 min of stimulation under static conditions. The cells were pretreated at 37° C. for 30-60 min with the indicated concentrations of the test compound. Results are expressed as percentage of inhibition over control (=100%) and are the mean of three experiments in the case of human leukocytes. Results are expressed as mean counts and are the mean counts ±S.D of three experiments and are the mean of three experiments in the case of murine encephalitogenic lymphocytes.

[5] = tested on: lymphocytes; experiment: Chemokine-induced rapid adhesion of lymphocytes to ICAM-1 (MIP3β); format: cell-based; details: Homo sapiens, Lymphocyte, MIP3β 1 μM; for inhibition at 10 µM: [cpd] 10 μM, read-out: Inhibition of Adhesion (%) Lymphocytes (MIP3-β); for inhibition at 25 µM: [cpd] 25 μM; for inhibition at 25 µM / inhibition at 50 µM: read-out: Inhibition of Adhesion (%) Lymphocytes (MIP3-β) (converted); for inhibition at 50 µM: [cpd] 50 μM
Description: as §4, §5
(§6) Integrin activation was measured as induction of rapid adhesion triggered by the “classical” chemoattractant fMLP (100 nM) or by the CC chemokine MIP3β (CCL19, 1 μM). PMNs were triggered to adhere to fibrinogen (CR3 ligand); lymphocytes were triggered to adhere to ICAM-1 (LFA-1 ligand).

[6] = tested on: PMNs; experiment: Chemokine-induced rapid adhesion of PMNs to fibrinogen (fMLP); format: cell-based; details: Homo sapiens, 2 min, fMLP 100 nM; for inhibition at 10 µM: [cpd] 10 μM; for inhibition at 25 µM: [cpd] 25 μM; for inhibition at 50 µM: [cpd] 50 μM
Description: as §4, §5, §6

[7] = tested on: encephalitogenic lymphocytes; experiment: Chemokine-induced adhesion of murine encephalitogenic T cells to ICAM-1; format: cell-based, SJL mice; details: ICAM-1; for Chemokine-induced Adhesion in encephalitogenic lymphocytes, Mean counts ± S.D., in presence of MIP3-β stimulation: 1 μM CCL19 (MIP-3beta)
Description: as §4, §5
Chemokines trigger rapid arrest of lymphocytes in blood vessels through pertussis toxin-sensitive G protein coupled receptors. Rapid adhesion to purified ICAM-1 was measured in in vitro adhesion assays using control/untreated cells and lymphocytes treated with concentration between 5-50 μM for 1 h. Autoreactive lymphocytes were then stimulated with 1 μM CCL19 (MIP-3beta) for 3 min. […] These compounds were already efficient in blocking adhesion using a concentration of 5 μM for the cell treatment.

[8] = tested on: PMNs; experiment: Chemotaxis assay, PMNs (fMLP); format: cell-based; details: Homo sapiens, fMLP 10 nM, 2 h; for inhibition at 10 µM: [cpd] 10 μM; for inhibition at 25 µM: [cpd] 25 μM; for inhibition at 50 µM: [cpd] 50 μM
Description: as §1, §2, §3

`COc1cc2[nH]c(-c3nnc[nH]3)c(-c3ccccc3)c2cc1OC` [Example 58] gave an inhibition at 10 µM [1] of 51.7%, an inhibition at 25 µM [1] of 87.5% and an inhibition at 50 µM [1] of 97.8%. For the same compound, the inhibition at 10 µM [2] was 49.3%, the inhibition at 25 µM [2] was 82.9% and the inhibition at 50 µM [2] was 92.2%. For the same compound, the inhibition at 5 µM [3] was 40.7%, the inhibition at 10 µM [3] was 49.5% and the inhibition at 50 µM [3] was 95.6%. The inhibition at 10 µM [4] was 6.8%, the inhibition at 25 µM [4] was 10.6% and the inhibition at 50 µM [4] was 16.6%. The inhibition at 10 µM [5] was 92.1%, the inhibition at 25 µM [5] was 93.9% and the inhibition at 50 µM [5] was 94.7%. The inhibition at 10 µM [6] was 33.1%, the inhibition at 25 µM [6] was 45% and the inhibition at 50 µM [6] was 61.4%. The “Chemokine-induced Adhesion in encephalitogenic lymphocytes, Mean counts ± S.D., in presence of MIP3-β stimulation” value (from here on “Chemokine-induced Adhesion”) ([7]; [cpd] 10 μM) was 73.2 ± 5.5, the “Adhesion in encephalitogenic lymphocytes, Mean counts ± S.D., in absence of MIP3-β stimulation” value (“Adhesion … in absence of MIP3-β stimulation” for short) ([7]; [cpd] 10 μM) was 48.7 ± 6.5 and the “Chemokine-induced Adhesion” value ([7]; [cpd] 50 μM) was 46.8 ± 4.7. The “Adhesion … in absence of MIP3-β stimulation” value ([7]; [cpd] 50 μM) was 19.8 ± 5.8, the inhibition at 10 µM [8] was 53.9% and the inhibition at 25 µM [8] was 87.5%. The inhibition at 50 µM [8] was 97.9%.
In the case of `CCOC(=O)CCc1[nH]c2cc(OC)c(OC)cc2c1-c1ccc(OC)cc1` [Example 22], the inhibition at 10 µM [1] is reported as 23.7%, the inhibition at 25 µM [1] is reported as 80.1% and the inhibition at 50 µM [1] is reported as 96.4%. For the same compound, the inhibition at 10 µM [2] was 47.9%, the inhibition at 25 µM [2] was 84.6% and the inhibition at 50 µM [2] was 94.7%. The inhibition at 5 µM [3] was 39.9%, the inhibition at 10 µM [3] was 61.3% and the inhibition at 50 µM [3] was 94.7%. The inhibition at 10 µM [4] was 9.5%, the inhibition at 25 µM [4] was 29.6% and the inhibition at 50 µM [4] was 42.6%. The inhibition at 10 µM [5] was 65%, the inhibition at 25 µM [5] was 95.6% and the inhibition at 50 µM [5] was 97.1%. It also gave an inhibition at 10 µM [6] of 2.6%, an inhibition at 25 µM [6] of 13.8% and an inhibition at 50 µM [6] of 32.6%. For the same compound, the “Chemokine-induced Adhesion” value ([7]; [cpd] 10 μM) was 74.1 ± 6.4, the “Adhesion … in absence of MIP3-β stimulation” value ([7]; [cpd] 10 μM) was 44.2 ± 5.7 and the “Chemokine-induced Adhesion” value ([7]; [cpd] 50 μM) was 48.0 ± 6.4. The inhibition at 10 µM [8] was 56.9%, the inhibition at 25 µM [8] was 88.7% and the inhibition at 50 µM [8] was 97.8%.
`COc1ccc(-c2c(C#N)n(CCCN(C)C)c3cc(OC)c(OC)cc23)cc1` [Example 55] gave an inhibition at 10 µM [1] of 54.6%, an inhibition at 25 µM [1] of 89.2% and an inhibition at 50 µM [1] of 92.9%. For the same compound, the inhibition at 10 µM [2] was 43.7%, the inhibition at 25 µM [2] was 84.2% and the inhibition at 50 µM [2] was 91.2%. The inhibition at 5 µM [3] was 7.6%, the inhibition at 10 µM [3] was 12.4% and the inhibition at 50 µM [3] was 96.4%. The inhibition at 10 µM [4] was 7.7%, the inhibition at 25 µM [4] was 38.5% and the inhibition at 50 µM [4] was 97.9%. The inhibition at 10 µM [5] was 80%, the inhibition at 25 µM [5] was 91.9% and the inhibition at 50 µM [5] was 97%. For the same compound, the inhibition at 10 µM [6] was 8.4%, the inhibition at 25 µM [6] was 19% and the inhibition at 50 µM [6] was 27.4%. The “Chemokine-induced Adhesion” value ([7]; [cpd] 10 μM) was 98.3 ± 13.7, the “Adhesion … in absence of MIP3-β stimulation” value ([7]; [cpd] 10 μM) was 53.5 ± 3.5 and the “Chemokine-induced Adhesion” value ([7]; [cpd] 50 μM) was 46.9 ± 6.2. For the same compound, the “Adhesion … in absence of MIP3-β stimulation” value ([7]; [cpd] 50 μM) was 13.2 ± 3.7, the inhibition at 10 µM [8] was 79.4% and the inhibition at 25 µM [8] was 94.2%. It also gave an inhibition at 50 µM [8] of 96.8%.
`COc1cc2[nH]c(C(=O)N3CCOCC3)c(-c3ccccc3)c2cc1OC` [Example 47] was tested, and the inhibition at 10 µM [1] was 56.5%, the inhibition at 25 µM [1] was 82.4% and the inhibition at 50 µM [1] was 93.9%. The inhibition at 10 µM [2] was 44.3%, the inhibition at 25 µM [2] was 66.6% and the inhibition at 50 µM [2] was 88.2%. The inhibition at 5 µM [3] was 7.1%, the inhibition at 10 µM [3] was 17.2% and the inhibition at 50 µM [3] was 93.4%. For the same compound, the inhibition at 10 µM [4] was 8.7%, the inhibition at 25 µM [4] was 14.4% and the inhibition at 50 µM [4] was 22.4%. The inhibition at 10 µM [5] was 43.8%, the inhibition at 25 µM [5] was 52.5% and the inhibition at 50 µM [5] was 77.5%. The inhibition at 10 µM [6] was 16.6%, the inhibition at 25 µM [6] was 37.1% and the inhibition at 50 µM [6] was 45.4%. The inhibition at 10 µM [8] was 75.4%, the inhibition at 25 µM [8] was 87.5% and the inhibition at 50 µM [8] was 96.1%.
